Reference: the NIST ThermoML archive (doi:10.1016/j.jct.2011.12.024)

Experiment: refractive index (other wavelength) (dimensionless); xn = mol fraction of the nth substance listed
Conditions: 101.33 kPa, Liquid, Wavelength=632.8 nm, Standard Abbe refractometry

COC(=O)CCCCC(=O)OC [dimethyl 1,6-hexanedioate] + CCCCCCC
Conditions | refractive index
289.5 K, x1 = 1 | 1.4287
291.65 K, x1 = 1 | 1.4279
292.22 K, x1 = 0.1018 | 1.3909
292.85 K, x1 = 0.5999 | 1.412
293.07 K, x1 = 0.7009 | 1.4159
293.2 K, x1 = 0.8979 | 1.4236
293.27 K, x1 = 0.1018 | 1.3904
293.28 K, x1 = 0.8048 | 1.42
293.87 K, x1 = 0.5999 | 1.4115
294.11 K, x1 = 0.8979 | 1.4232
294.12 K, x1 = 0.7009 | 1.4155
294.22 K, x1 = 0.8048 | 1.4196
294.37 K, x1 = 0.1018 | 1.3898
294.86 K, x1 = 0.5999 | 1.4111
294.9 K, x1 = 1 | 1.4265
294.96 K, x1 = 0.2007 | 1.398
295.01 K, x1 = 0.8979 | 1.4228
295.12 K, x1 = 0.8048 | 1.4192
295.15 K, x1 = 0.7009 | 1.415
295.39 K, x1 = 0.1018 | 1.3893
295.61 K, x1 = 0.3992 | 1.402
295.8 K, x1 = 0.4976 | 1.4062
295.83 K, x1 = 0.5999 | 1.4107
295.94 K, x1 = 0.8979 | 1.4224
295.95 K, x1 = 0.2007 | 1.3975
296.09 K, x1 = 0.8048 | 1.4188
296.15 K, x1 = 0.7009 | 1.4146
296.45 K, x1 = 0.1018 | 1.3888
296.65 K, x1 = 0.3992 | 1.4016
296.81 K, x1 = 0.5999 | 1.4103
296.89 K, x1 = 0.8979 | 1.422
296.9 K, x1 = 0.4976 | 1.4056
296.91 K, x1 = 0.2007 | 1.3971
296.94 K, x1 = 1 | 1.4257
297.08 K, x1 = 0.8048 | 1.4184
297.23 K, x1 = 0.7009 | 1.4142
297.45 K, x1 = 0.1018 | 1.3883
297.64 K, x1 = 0.3992 | 1.4011
297.81 K, x1 = 0.8979 | 1.4216
297.87 K, x1 = 0.5999 | 1.4098
297.95 K, x1 = 0.4976 | 1.4052
298.02 K, x1 = 0.2007 | 1.3965
298.02 K, x1 = 0.8048 | 1.418
298.15 K, x1 = 0.7009 | 1.4138
298.66 K, x1 = 0.3992 | 1.4007
298.92 K, x1 = 0.4976 | 1.4048
299.11 K, x1 = 0.2007 | 1.396
299.7 K, x1 = 0.3992 | 1.4002
299.93 K, x1 = 0.4976 | 1.4043
300.15 K, x1 = 0.2007 | 1.3955
300.67 K, x1 = 0.3992 | 1.3997
300.93 K, x1 = 0.4976 | 1.4039
301.21 K, x1 = 0.2007 | 1.395
301.74 K, x1 = 0.3992 | 1.3992
301.98 K, x1 = 0.4976 | 1.4034
